# Activity calls are given as the source filed them. No cut-off for these calls is given here.
# Experiments:
# [1] = Toxicity in BALB/c mouse assessed as late stage erythroblasts in bone marrow at 10 mg/kg, po qd for 3 days and 4 days off intermittent dosing for 4 cycles by flow cytometry; format: organism-based; conditions: in vivo, 672 h, time 28 day
# [2] = Oral bioavailability in Sprague-Dawley rat at 2.5 to 5 mg/kg formulated as a solution in 5% NMP:95% (10% VitE TPGS in water) measured for 24 hrs by reverse phase liquid chromatography coupled to mass spectrometry; format: ADME, organism-based; conditions: in vivo, dose 2.5-5 mg/kg
# [3] = Toxicity in NOD-SCID mouse xenografted with human Granta-519 cells assessed as changes in body weight at 10 mg/kg, po qd for 7 days; format: organism-based; conditions: in vivo, 168 h, time 7 day
# [4] = Toxicity in NOD-SCID mouse xenografted with human Granta-519 cells assessed as circulating reticulocytes at 30 mg/kg, po qd for 3 days and 4 days off treatment and measured on day 14; format: organism-based; conditions: in vivo, 72 h, time 3 day
# [5] = Clearance in human hepatocytes at 1 uM measured per million cells by ESI/LC-MS/MS analysis; format: ADME, cell-based, Hepatocyte; conditions: read-out: CLH
# Granta-519 [6] = assay: Antitumor activity against human Granta-519 cells xenografted in NOD-SCID mouse assessed as decrease in tumor volume at 25 mg/kg, po qd for 5 days and measured at 2 days after drug treatment cessation; format: functional, organism-based; conditions: time 5.0 day
# [7] = Toxicity in NOD-SCID mouse xenografted with human Granta-519 cells assessed as red blood cells at 30 mg/kg, po qd for 3 days and 4 days off treatment and measured on day 14; format: organism-based; conditions: in vivo, 72 h, time 3 day
# [8] = Toxicity in NOD-SCID mouse xenografted with human Granta-519 cells assessed as early stage erythroblasts in bone marrow at 10 mg/kg, po qd for 3 days and measured at 4 days after treatment cessation by flow cytometry; format: organism-based; conditions: in vivo, 72 h, time 3 day
# [9] = Toxicity in BALB/c mouse assessed as early stage erythroblasts in bone marrow at 10 mg/kg, po qd for 3 days and measured at 1 day after treatment discontinuation by flow cytometry; format: organism-based; conditions: in vivo, 72 h, time 3 day
# [10] = Toxicity in NOD-SCID mouse xenografted with human Granta-519 cells assessed as late stage erythroblasts in bone marrow at 10 mg/kg, po qd for 3 days co-administered with PARP inhibitor, niraparib and measured at 2 days after treatment cessation by flow cytometry; format: organism-based; conditions: in vivo, 72 h, time 3 day
# [11] = Toxicity in BALB/c mouse assessed as megakaryocytes in bone marrow at 10 mg/kg, po qd for 3 days; format: organism-based; conditions: in vivo, 72 h, time 3 day
# [12] = Toxicity in NOD-SCID mouse xenografted with human Granta-519 cells assessed as reduction in late stage erythroblasts at 10 mg/kg, po qd for 1 day by flow cytometry; format: organism-based; conditions: in vivo, 24 h
# [13] = Clearance in mouse hepatocytes at 1 uM measured per million cells by ESI/LC-MS/MS analysis; format: ADME, cell-based, Hepatocyte; conditions: read-out: CLH
# [14] = Toxicity in NOD-SCID mouse xenografted with human Granta-519 cells assessed as red blood cells count at 5 mg/kg, po qd for 3 days and 4 days off intermittent dosing for 3 cycles co-administered with PARP inhibitor, niraparib and measured on day 21; format: organism-based; conditions: in vivo, 504 h, time 21 day
# [15] = Toxicity in NOD-SCID mouse xenografted with human Granta-519 cells assessed as late stage erythroblasts in bone marrow at 10 mg/kg, po qd for 3 days and measured at 4 days after treatment cessation by flow cytometry; format: organism-based; conditions: in vivo, 72 h, time 3 day
# [16] = Clearance in dog liver microsomes at 1 uM in presence of NADPH by ESI/LC-MS/MS analysis; format: ADME, Canis lupus familiaris, Microsome; conditions: read-out: CLH
# [17] = Oral bioavailability in cynomolgus monkey at 1 mg/kg formulated as suspension in 10% propylene glycol:18% PEG400 in water measured for 24 hrs by reverse phase liquid chromatography coupled to mass spectrometry; format: ADME, organism-based, Macaca fascicularis; conditions: in vivo
# Granta-519 [18] = assay: Antitumor activity against human Granta-519 cells xenografted in NOD-SCID mouse assessed as decrease in tumor volume at 10 mg/kg, po qd for 7 days; format: functional, organism-based; conditions: time 7.0 day
# LoVo = assay: Cytotoxicity against human LoVo cells assessed as reduction in cell viability incubated for 5 days by CellTiter-Glo assay; format: functional, cell-based; conditions: 120 h
# [19] = Toxicity in BALB/c mouse assessed as early stage erythroblasts in bone marrow at 10 mg/kg, po qd for 3 days and 4 days off intermittent dosing for 4 cycles by flow cytometry; format: organism-based; conditions: in vivo, 672 h, time 28 day
# [20] = Toxicity in BALB/c mouse assessed as late stage erythroblasts in bone marrow at 10 mg/kg, po qd for 3 days and measured at 1 day after treatment discontinuation by flow cytometry; format: organism-based; conditions: in vivo, 72 h, time 3 day
# [21] = Clearance in dog hepatocytes at 1 uM measured per million cells by ESI/LC-MS/MS analysis; format: ADME, cell-based, Canis lupus familiaris, Hepatocyte; conditions: read-out: CLH
# [22] = Toxicity in BALB/c mouse assessed as reticulocytes in bone marrow at 10 mg/kg, po qd for 3 days and measured at 4 days after treatment discontinuation; format: organism-based; conditions: in vivo, 72 h, time 3 day
# [23] = Clearance in CD-1 mouse at 1 mg/kg, iv formulated as a solution in 10% PG:18% PEG400 in water or 5% NMP:95% (10% VitE TPGS in water) measured for 24 hrs by reverse phase liquid chromatography coupled to mass spectrometry; format: ADME, organism-based; conditions: in vivo
# [24] = Toxicity in NOD-SCID mouse xenografted with human Granta-519 cells assessed as late stage erythroblasts at 30 mg/kg, po qd for 3 days and measured at 2 days after treatment discontinuation by flow cytometry; format: organism-based; conditions: in vivo, 72 h, time 3 day
# [25] = Toxicity in NOD-SCID mouse xenografted with human Granta-519 cells assessed as changes in body weight at 30 mg/kg, po qd for 3 days and measured at 4 days after drug treatment cessation; format: organism-based; conditions: in vivo, 72 h, time 3 day
# [26] = Clearance in monkey hepatocytes at 1 uM in presence of NADPH by ESI/LC-MS/MS analysis; format: ADME, cell-based, Macaca mulatta, Hepatocyte; conditions: rhesus monkey
# [27] = Toxicity in NOD-SCID mouse xenografted with human Granta-519 cells assessed as reticulocytes count at 5 mg/kg, po qd for 3 days and 4 days off intermittent dosing for 3 cycles co-administered with PARP inhibitor, niraparib and measured on day 21; format: organism-based; conditions: in vivo, 504 h, time 21 day
# [28] = Toxicity in NOD-SCID mouse xenografted with human Granta-519 cells assessed as changes in body weight at 25 mg/kg, po qd for 5 days and measured at 2 days after drug treatment cessation; format: organism-based; conditions: in vivo, 120 h, time 5 day
# [29] = Toxicity in BALB/c mouse assessed as morphological changes in myeloid lineage cells in bone marrow at 10 mg/kg, po qd for 3 days; format: organism-based; conditions: in vivo, 72 h, time 3 day
# [30] = target: Serine/threonine-protein kinase ATR (Homo sapiens, UniProt Q13535); assay: Inhibition of ATR in human Jurkat cell lysates at 0.003 to 0.3 uM in presence of biotinylated ADP by KiNativ profiling based mass spectrometry; format: subcellular; conditions: dose 0.003-0.3 µM
# Sequence of Serine/threonine-protein kinase ATR (Q13535 whole entry, looked up): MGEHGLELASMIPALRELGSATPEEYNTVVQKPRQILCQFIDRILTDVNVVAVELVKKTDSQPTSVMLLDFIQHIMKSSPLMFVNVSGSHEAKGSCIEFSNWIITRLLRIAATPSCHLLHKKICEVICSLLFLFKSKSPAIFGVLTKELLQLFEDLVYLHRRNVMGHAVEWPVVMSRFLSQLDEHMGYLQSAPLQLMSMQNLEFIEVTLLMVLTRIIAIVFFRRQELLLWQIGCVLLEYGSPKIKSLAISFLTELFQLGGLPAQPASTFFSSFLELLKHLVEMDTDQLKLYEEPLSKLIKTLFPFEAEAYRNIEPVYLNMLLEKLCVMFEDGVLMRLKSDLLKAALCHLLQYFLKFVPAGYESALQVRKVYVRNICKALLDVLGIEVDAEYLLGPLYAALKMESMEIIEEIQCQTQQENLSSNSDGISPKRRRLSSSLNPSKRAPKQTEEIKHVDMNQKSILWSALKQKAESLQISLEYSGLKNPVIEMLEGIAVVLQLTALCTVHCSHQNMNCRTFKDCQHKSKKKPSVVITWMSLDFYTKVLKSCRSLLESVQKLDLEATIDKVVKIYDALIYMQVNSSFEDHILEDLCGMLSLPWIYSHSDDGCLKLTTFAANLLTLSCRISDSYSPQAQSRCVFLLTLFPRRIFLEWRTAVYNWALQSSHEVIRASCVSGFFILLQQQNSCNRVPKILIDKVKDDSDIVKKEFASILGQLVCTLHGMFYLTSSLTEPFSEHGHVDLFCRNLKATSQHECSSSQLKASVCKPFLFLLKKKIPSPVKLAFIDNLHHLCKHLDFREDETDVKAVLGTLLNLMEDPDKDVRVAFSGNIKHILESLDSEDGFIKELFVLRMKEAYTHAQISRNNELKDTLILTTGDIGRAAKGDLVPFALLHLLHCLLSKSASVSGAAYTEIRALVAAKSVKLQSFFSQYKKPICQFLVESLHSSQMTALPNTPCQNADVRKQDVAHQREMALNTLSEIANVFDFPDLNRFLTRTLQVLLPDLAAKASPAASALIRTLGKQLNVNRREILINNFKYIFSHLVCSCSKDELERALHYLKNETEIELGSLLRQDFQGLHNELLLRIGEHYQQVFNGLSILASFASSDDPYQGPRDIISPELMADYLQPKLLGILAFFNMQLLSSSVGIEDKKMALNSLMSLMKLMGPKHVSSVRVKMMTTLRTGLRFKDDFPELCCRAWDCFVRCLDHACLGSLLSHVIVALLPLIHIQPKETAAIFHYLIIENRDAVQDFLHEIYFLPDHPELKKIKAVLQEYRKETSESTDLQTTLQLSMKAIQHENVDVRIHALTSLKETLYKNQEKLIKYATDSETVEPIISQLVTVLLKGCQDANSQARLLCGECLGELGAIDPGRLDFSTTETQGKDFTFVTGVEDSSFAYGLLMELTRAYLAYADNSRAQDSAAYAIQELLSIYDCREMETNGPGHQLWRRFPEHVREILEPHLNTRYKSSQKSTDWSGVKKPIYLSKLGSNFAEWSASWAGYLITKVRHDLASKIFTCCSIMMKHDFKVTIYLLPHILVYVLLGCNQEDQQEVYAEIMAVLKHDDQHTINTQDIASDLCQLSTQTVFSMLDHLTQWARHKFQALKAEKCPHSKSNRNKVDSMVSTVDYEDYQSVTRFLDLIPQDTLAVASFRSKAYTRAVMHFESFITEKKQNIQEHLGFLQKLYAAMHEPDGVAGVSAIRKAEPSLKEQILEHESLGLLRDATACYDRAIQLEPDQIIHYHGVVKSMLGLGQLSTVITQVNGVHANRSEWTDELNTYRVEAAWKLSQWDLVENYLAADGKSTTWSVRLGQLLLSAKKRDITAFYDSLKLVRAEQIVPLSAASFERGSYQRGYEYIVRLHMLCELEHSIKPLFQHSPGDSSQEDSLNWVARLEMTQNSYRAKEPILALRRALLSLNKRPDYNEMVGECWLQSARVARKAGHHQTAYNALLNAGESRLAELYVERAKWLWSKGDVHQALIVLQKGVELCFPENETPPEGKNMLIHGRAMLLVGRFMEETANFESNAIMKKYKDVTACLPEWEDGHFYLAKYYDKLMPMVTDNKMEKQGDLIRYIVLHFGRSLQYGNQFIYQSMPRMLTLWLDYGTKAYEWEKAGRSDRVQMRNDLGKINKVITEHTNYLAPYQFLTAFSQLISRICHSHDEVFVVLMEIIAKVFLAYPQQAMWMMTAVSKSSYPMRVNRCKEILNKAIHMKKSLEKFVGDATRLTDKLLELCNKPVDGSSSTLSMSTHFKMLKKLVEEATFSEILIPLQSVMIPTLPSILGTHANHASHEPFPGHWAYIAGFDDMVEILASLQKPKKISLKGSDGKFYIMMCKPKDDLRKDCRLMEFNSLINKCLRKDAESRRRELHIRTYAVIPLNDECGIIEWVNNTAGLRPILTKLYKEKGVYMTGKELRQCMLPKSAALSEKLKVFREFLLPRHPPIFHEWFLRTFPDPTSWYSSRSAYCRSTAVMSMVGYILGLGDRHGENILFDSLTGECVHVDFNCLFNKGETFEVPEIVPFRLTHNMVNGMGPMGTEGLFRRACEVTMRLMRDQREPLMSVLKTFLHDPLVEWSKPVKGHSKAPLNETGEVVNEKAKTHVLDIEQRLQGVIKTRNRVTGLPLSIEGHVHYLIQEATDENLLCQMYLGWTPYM
# [31] = Toxicity in NOD-SCID mouse xenografted with human Granta-519 cells assessed as reticulocytes count at 5 mg/kg, po qd for 3 days and 4 days off intermittent dosing for 3 cycles co-administered with PARP inhibitor, niraparib from day 3 to day 6 in each cycle and measured on day 21; format: organism-based; conditions: in vivo, 504 h, time 21 day
# [32] = Toxicity in BALB/c mouse assessed as reduction in bone marrow cell viability at 10 mg/kg, po qd for 3 days by trypan blue exclusion assay; format: organism-based; conditions: in vivo, 72 h, time 3 day
smiles,measurement,setting,value
C[C@@H]1COCCN1c1cc([C@]2(O)C[C@H]3CC[C@@H](C2)O3)c2cnn(-c3cc[nH]n3)c2n1 [CAMONSERTIB],Activity,[1],Non-Toxic
same,bioavailability,[2],66%
same,Activity,[3],Non-Toxic
same,Activity,[4],Non-Toxic
same,hepatocyte CLint at 1 µM,[5],1.5 µL/min/1e6 cells
same,Activity,Granta-519 [6],Active
same,Activity,[7],Non-Toxic
same,Activity,[8],Non-Toxic
same,Activity,[9],Non-Toxic
same,Activity,[10],Non-Toxic
same,Activity,[11],Non-Toxic
same,Activity,[12],Toxic
same,hepatocyte CLint at 1 µM,[13],11 µL/min/1e6 cells
same,Activity,[14],Non-Toxic
same,Activity,[15],Non-Toxic
same,microsomal CLint at 1 µM,[16],< 11.6 µL/min/mg
same,bioavailability,[17],56%
same,Activity,Granta-519 [18],Active
same,IC50,LoVo,28 nM
same,Activity,[19],Non-Toxic
same,Activity,[20],Non-Toxic
same,hepatocyte CLint at 1 µM,[21],< 1 µL/min/1e6 cells
same,Activity,[22],Non-Toxic
same,clearance,[23],1.2 mL/min/kg
same,Activity,[24],Non-Toxic
same,Activity,[25],Non-Toxic
same,CLH,[26],3.6 µL/min
same,Activity,[27],Non-Toxic
same,Activity,[28],Non-Toxic
same,Activity,[29],Non-Toxic
same,inhibition,[30],Active
same,Activity,[31],Non-Toxic
same,Activity,[32],Toxic

# — ChEMBL document CHEMBL5505970 (J Med Chem, 2024)
